Key:
A549 [1] = test: Potency index, ratio of etoposide IC50 to test compound IC50 for antiproliferative activity against human A549 cells; format: functional
HepG2 [2] = test: Potency index, ratio of etoposide IC50 to test compound IC50 for antiproliferative activity against human HepG2 cells; format: functional
HepG2 [3] = test: Antiproliferative activity against human HepG2 cells incubated for 3 days by MTT assay; format: functional, cell-based; conditions: HepG2, 72 h
HCT-116 [4] = test: Antiproliferative activity against human HCT116 cells incubated for 3 days by MTT assay; format: functional, cell-based; conditions: HCT-116, 72 h
A549 [5] = test: Antiproliferative activity against human A549 cells incubated for 3 days by MTT assay; format: functional, cell-based; conditions: A549, 72 h
HCT-116 [6] = test: Potency index, ratio of etoposide IC50 to test compound IC50 for antiproliferative activity against human HCT116 cells; format: functional
[7] = Terminal half life in Sprague-Dawley rat at 2.5 mg/kg, iv measured after 5 to 1440 mins by LC-MS/MS analysis; format: ADME, organism-based; conditions: in vivo, time 5-1440 min, read-out: beta t1/2 (converted)
[8] = MRT in Sprague-Dawley rat at 2.5 mg/kg, iv measured after 5 to 1440 mins by LC-MS/MS analysis; format: ADME, organism-based; conditions: in vivo, time 5-1440 min
[9] = Mean initial plasma concentration in Sprague-Dawley rat at 2.5 mg/kg, iv measured after 5 to 1440 mins by LC-MS/MS analysis; format: ADME, organism-based; conditions: rat, plasma, iv, time 5-1440 min, dose 2.5 mg/kg, read-out: C0
[10] = AUCinfinity in Sprague-Dawley rat at 2.5 mg/kg, iv measured after 5 to 1440 mins by LC-MS/MS analysis; format: ADME, organism-based; set-up: route intravenous, dose 2.5 mg/kg, time upper 1440 min, time lower 5 min; conditions: in vivo, 2.5 mg/kg
[11] = Plasma clearance in Sprague-Dawley rat at 2.5 mg/kg, iv measured after 5 to 1440 mins by LC-MS/MS analysis; format: ADME, organism-based; set-up: dose 2.5 mg/kg, time upper 1440 min, time lower 5 min; conditions: time 5-1440 min, dose 2.5 mg/kg
DU-145 = test: Antiproliferative activity against human DU145 cells by MTT assay; format: functional, cell-based
MKN-45 [12] = test: Antiproliferative activity against human MKN-45 cells incubated for 72 hrs by MTT assay; format: functional, cell-based; conditions: Homo sapiens, MKN-45, 72 h
BGC-823 [13] = test: Potency index, ratio of etoposide IC50 to test compound IC50 for antiproliferative activity against human BGC-823 cells; format: functional
BGC-823 [14] = test: Antiproliferative activity against human BGC-823 cells incubated for 72 hrs by MTT assay; format: functional, cell-based; conditions: BGC-823, 72 h
MKN-45 [15] = test: Potency index, ratio of etoposide IC50 to test compound IC50 for antiproliferative activity against human MKN-45 cells; format: functional
A549 [16] = test: Antiproliferative activity against human A549 cells incubated for 48 hrs by MTT assay; format: functional, cell-based; conditions: A549, 48 h
MCF7 [17] = test: Antiproliferative activity against human MCF7 cells incubated for 48 hrs by MTT assay; format: functional, cell-based; conditions: MCF7, 48 h
SW480 [18] = test: Antiproliferative activity against human SW480 cells incubated for 48 hrs by MTT assay; format: functional, cell-based; conditions: SW480, 48 h
SMMC-7721 [19] = test: Antiproliferative activity against human SMMC-7721 cells incubated for 48 hrs by MTT assay; format: functional, cell-based; conditions: SMMC-7721, 48 h
HL-60 [20] = test: Antiproliferative activity against human HL-60 cells incubated for 48 hrs by MTT assay; format: functional, cell-based; conditions: HL-60, 48 h
[21] = Cytotoxicity against human BEAS2B cells; format: cell-based; conditions: BEAS-2B cells
[22] = Selectivity index, ratio of CC50 for human BEAS2B cells to IC50 for human HL60 cells; format: toxicity; conditions: read-out: Ratio CC50/IC50
[23] = Selectivity index, ratio of CC50 for human BEAS2B cells to IC50 for human SMMC7721 cells; format: toxicity; conditions: read-out: Ratio CC50/IC50
[24] = Selectivity index, ratio of CC50 for human BEAS2B cells to IC50 for human A549 cells; format: toxicity; conditions: read-out: Ratio CC50/IC50
[25] = Selectivity index, ratio of CC50 for human BEAS2B cells to IC50 for human MCF7 cells; format: toxicity; conditions: read-out: Ratio CC50/IC50
[26] = Selectivity index, ratio of CC50 for human BEAS2B cells to IC50 for human SW480 cells; format: toxicity; conditions: read-out: Ratio CC50/IC50
MCF7 [27] = test: Cytotoxicity against human MCF7 cells by MTT assay; format: functional, cell-based
HL-60 [28] = test: Antiproliferative activity against human HL-60 cells by MTT assay; format: functional, cell-based
SMMC-7721 [29] = test: Antiproliferative activity against human SMMC-7721 cells by MTT assay; format: functional, cell-based
A549 [30] = test: Antiproliferative activity against human A549 cells by MTT assay; format: functional, cell-based
SW480 [31] = test: Antiproliferative activity against human SW480 cells by MTT assay; format: functional, cell-based
[32] = Cytotoxicity against human MUM-2B cells incubated for 72 hrs by CCK8 assay; format: functional, cell-based
[33] = Cytotoxicity against human C918 cells incubated for 72 hrs by CCK8 assay; format: functional, cell-based; conditions: C918, 72 h
[34] = Potency index, ratio of etoposide IC50 to test compound IC50 for antiproliferative activity against human MUM-2B cells; format: functional
[35] = Potency index, ratio of etoposide IC50 to test compound IC50 for antiproliferative activity against human C918 cells; format: functional
A549 [36] = test: Antiproliferative activity against human A549 cells incubated for 72 hrs by MTT assay; format: functional, cell-based; conditions: A549, 72 h
MCF7 [37] = test: Potency index, ratio of etoposide IC50 to test compound IC50 for antiproliferative activity against human MCF7 cells; format: functional
SMMC-7721 [38] = test: Potency index, ratio of etoposide IC50 to test compound IC50 for antiproliferative activity against human SMMC7721 cells; format: functional
SW480 [39] = test: Potency index, ratio of etoposide IC50 to test compound IC50 for antiproliferative activity against human SW480 cells; format: functional
HL-60 [40] = test: Potency index, ratio of etoposide IC50 to test compound IC50 for antiproliferative activity against human HL60 cells; format: functional
HepG2 [41] = test: Antiproliferative activity against human HepG2 cells incubated for 48 hrs by MTT assay; format: functional, cell-based; conditions: HepG2, 48 h
[42] = Antiproliferative activity against human HCCLM3 cells incubated for 48 hrs by MTT assay; format: functional, cell-based; conditions: HCCLM3, 48 h
HepG2 [43] = test: Antitumor activity against human HepG2 cells xenografted in BALB/c nude mouse assessed as tumor weight suppression at 1 mg/kg, ip administered every 6 days for 20 days and measured every 2 days by digital caliper method relative to control; format: functional, organism-based; conditions: time 20 day

COc1cc([C@@H]2c3cc4c(cc3[C@@H](NC(=S)NC(=O)c3ccccc3)[C@H]3COC(=O)[C@H]23)OCO4)cc(OC)c1OC
Ratio IC50 (A549 [1]): 49
Ratio IC50 (HepG2 [2]): 49
IC50 (HepG2 [3]): 0.1 µM
IC50 (HCT-116 [4]): 0.1 µM
IC50 (A549 [5]): 0.1 µM
Ratio IC50 (HCT-116 [6]): 49

COc1cc([C@@H]2c3cc4c(cc3[C@@H](NCC(F)(F)[C@]3(O)O[C@H](CO)[C@@H](O)[C@H](O)[C@H]3O)[C@H]3COC(=O)[C@H]23)OCO4)cc(OC)c1OC
half-life [7]: 67.8 min
MRT [8]: 16.2 min
C0 [9]: 8.78 µg/mL
AUC(0-inf) [10]: 2.21 µg·h/mL
clearance [11]: 1.14 L/h/kg

COc1cc([C@@H]2c3cc4c(cc3[C@@H](OCc3cn([C@@H]5O[C@H](COC(C)=O)[C@@H](OC(C)=O)[C@H](OC(C)=O)[C@H]5OC(C)=O)nn3)[C@H]3COC(=O)[C@H]23)OCO4)cc(OC)c1OC
IC50 (DU-145): 1.02 µM

COc1cc([C@@H]2c3cc4c(cc3[C@H](OC(=O)/C=C(C)/C=C/C=C(C)/C=C/C3=C(C)CCCC3(C)C)[C@H]3COC(=O)[C@H]23)OCO4)cc(OC)c1OC
IC50 (MKN-45 [12]): 0.419 µM
Ratio IC50 (BGC-823 [13]): 6.8
IC50 (BGC-823 [14]): 0.202 µM
Ratio IC50 (MKN-45 [15]): 6.8

CCCC(=O)OC[C@H]1O[C@@H](OC(COCc2cn([C@@H]3c4cc5c(cc4[C@@H](c4cc(OC)c(OC)c(OC)c4)[C@H]4C(=O)OC[C@@H]43)OCO5)nn2)COCc2cn([C@@H]3c4cc5c(cc4[C@@H](c4cc(OC)c(OC)c(OC)c4)[C@H]4C(=O)OC[C@@H]43)OCO5)nn2)[C@H](OC(=O)CCC)[C@@H](OC(=O)CCC)[C@@H]1OC(=O)CCC (some centres undefined)
IC50 (A549 [16]): 0.43 µM
IC50 (MCF7 [17]): 0.43 µM
IC50 (SW480 [18]): 0.43 µM
IC50 (SMMC-7721 [19]): 0.43 µM
IC50 (HL-60 [20]): 0.43 µM
CC50 [21]: 15.4 µM
selectivity ratio [22]: 4.3
selectivity ratio [23]: 4.3
selectivity ratio [24]: 4.3
selectivity ratio [25]: 4.3
selectivity ratio [26]: 4.3

COc1cc([C@@H]2c3cc4c(cc3[C@@H](n3cc(CO[C@@H]5O[C@H](CO[C@@H]6O[C@H](CO)[C@@H](O)[C@H](O)[C@H]6O)[C@@H](O)[C@H](O)[C@H]5O)nn3)[C@H]3COC(=O)[C@H]23)OCO4)cc(OC)c1OC
IC50 (MCF7 [27]): 0.67 µM
IC50 (HL-60 [28]): 0.67 µM
IC50 (SMMC-7721 [29]): 0.67 µM
IC50 (A549 [30]): 0.67 µM
IC50 (SW480 [31]): 0.67 µM

COc1cc(/C=C/c2ccc(OCC(=O)O[C@H]3c4cc5c(cc4[C@@H](c4cc(OC)c(OC)c(OC)c4)[C@H]4C(=O)OC[C@@H]43)OCO5)cc2)cc(OC)c1
IC50 [32]: 0.347 µM
IC50 [33]: 0.081 µM
Ratio IC50 [34]: 3.6
Ratio IC50 [35]: 34.2

COc1cc([C@@H]2c3cc4c(cc3[C@@H](n3cc(CO[C@H]5O[C@H](CO)[C@H](O)[C@H](O)[C@H]5O)nn3)[C@H]3COC(=O)[C@H]23)OCO4)cc(OC)c1O
IC50 (A549 [36]): 2.85 µM
IC50 (MCF7 [17]): 2.85 µM
Ratio IC50 (A549 [1]): 2
Ratio IC50 (MCF7 [37]): 2
IC50 (SW480 [18]): 2.85 µM
IC50 (SMMC-7721 [19]): 2.85 µM
IC50 (HL-60 [20]): 2.85 µM
Ratio IC50 (SMMC-7721 [38]): 2
Ratio IC50 (SW480 [39]): 2
Ratio IC50 (HL-60 [40]): 2

COc1cc([C@@H]2c3cc4c(cc3[C@@H](OC(=O)CCSC(=S)N/N=C/c3ccccn3)[C@H]3COC(=O)[C@H]23)OCO4)cc(OC)c1O
IC50 (HepG2 [41]): 3.89 µM
IC50 [42]: 11 µM
Activity (HepG2 [43]): 93.8%

Reference: ChEMBL document CHEMBL4818987, “Recent advances of podophyllotoxin/epipodophyllotoxin hybrids in anticancer activity, mode of action, and structure-activity relationship: An update (2010-2020)” (Eur J Med Chem, 2020)
